In US20190048016A1, “SUBSTITUTED BRIDGED UREA ANALOGS AS SIRTUIN MODULATORS” (GlaxoSmithKline Intellectual Property(No.2)Limited, priority 2014, published 2019):

Target: T1, SIRT1 (Homo sapiens, UniProt Q96EB6)
T1 sequence (Q96EB6 1-747): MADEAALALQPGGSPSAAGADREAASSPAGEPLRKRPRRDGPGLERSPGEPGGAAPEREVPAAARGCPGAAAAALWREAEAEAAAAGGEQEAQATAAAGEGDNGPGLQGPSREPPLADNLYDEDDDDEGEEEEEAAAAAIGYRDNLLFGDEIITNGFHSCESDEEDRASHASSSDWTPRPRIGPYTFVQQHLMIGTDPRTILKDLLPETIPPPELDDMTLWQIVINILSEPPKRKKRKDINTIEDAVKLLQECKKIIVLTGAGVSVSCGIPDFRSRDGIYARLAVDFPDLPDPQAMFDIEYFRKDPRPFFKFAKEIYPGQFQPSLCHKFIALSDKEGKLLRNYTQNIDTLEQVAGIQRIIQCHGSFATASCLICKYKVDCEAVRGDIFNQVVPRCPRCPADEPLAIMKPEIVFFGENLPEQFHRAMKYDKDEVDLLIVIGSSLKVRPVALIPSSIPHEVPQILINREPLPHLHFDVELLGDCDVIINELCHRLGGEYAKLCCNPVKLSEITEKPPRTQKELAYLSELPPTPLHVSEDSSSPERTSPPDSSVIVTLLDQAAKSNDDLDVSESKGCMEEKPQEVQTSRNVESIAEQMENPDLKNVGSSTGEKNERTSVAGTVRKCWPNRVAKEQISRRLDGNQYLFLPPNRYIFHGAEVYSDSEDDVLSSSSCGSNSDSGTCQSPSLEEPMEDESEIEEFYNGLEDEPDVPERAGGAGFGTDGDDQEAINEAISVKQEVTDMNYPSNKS
Experiment: Trp mass spectrometry assay of SIRT1 activation (deacetylation of Ac-R-H-K-K(Ac)-W-NH2 peptide, OAADPR formation)
Assay type: biochemical
Details: Trp peptide 0.5 μM, 120 μM βNAD+, 10 nM SIRT1, 25 min, 25° C.; for Emax: 25 min, read-out: TRP MAX RESP (percent maximum fold activation relative to control = 100%)
Summary of the method: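 10 nM His-tagged SIRT1 (E. coli expressed) with 0.5 μM Ac-RHKK(Ac)W-NH2 and 120 μM βNAD+, 25 min at 25° C, HEPES pH 7.5, […]; formic acid stop. OAADPR or deacetylated peptide measured by mass spectrometry; EC1.5 = concentration giving 150% activity versus DMSO control; maximum activation also reported.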

Row | Structure (SMILES) | Emax | TRP Activity (EC1.5, concentration of compound required to increase SIRT1 activity by 50% over control) | TRP MAX RESP (percent maximum fold activation relative to control = 100%)
1 | O=C(Nc1cc(OC[C@H](O)CO)ncn1)N1c2nc(-c3cccc(C(F)(F)F)c3)c(Cl)cc2N2CCC[C@H]1C2 [Example 70, (9S)-3-chloro-N-(6-((R)-2,3-dihydroxypropoxy)pyrimidin-4-yl)-2-(3-(trifluoromethyl)phenyl)-8,9-dihydro-6H-5,9-methanopyrido[2,3-b][1,4]diazocine-10(7H)-carboxamide] | ≥ 150% | B (EC1.5 1-25 μM) | 
2 | C[C@@H](NC(=O)c1nc2c(cc1Cl)N1CCC[C@@H](C1)N2C(=O)Nc1ccccn1)C(F)(F)F [Example 39, (9S)-3-chloro-N10-(pyridin-2-yl)-N2-((R)-1,1,1-trifluoropropan-2-yl)-8,9-dihydro-6H-5,9-methanopyrido[2,3-b][1,4]diazocine-2,10(7H)-dicarboxamide] | ≥ 150% | A (EC1.5<1 μM) | 
3 | O=C(Nc1ccncn1)N1c2nc(-c3ccnc(C(F)(F)F)c3)ccc2N2CCC[C@H]1C2 [Example 9, (9S)-N-(pyrimidin-4-yl)-2-(2-(trifluoromethyl)pyridin-4-yl)-8,9-dihydro-6H-5,9-methanopyrido[2,3-b][1,4]diazocine-10(7H)-carboxamide] | ≥ 150% | A (EC1.5<1 μM) | 
4 | O=C(Nc1ccc(OC[C@@H](O)CO)nc1)N1c2nc(-c3cccc(C(F)(F)F)c3)c(Cl)cc2N2CCC[C@H]1C2 [Example 84, (9S)-3-chloro-N-(6-((S)-2,3-dihydroxypropoxy)pyridin-3-yl)-2-(3-(trifluoromethyl)phenyl)-8,9-dihydro-6H-5,9-methanopyrido[2,3-b][1,4]diazocine-10(7H)-carboxamide] | ≥ 150% | A (EC1.5<1 μM) | 
5 | O=C(NC1CC1(F)F)c1ccc2c(n1)N(C(=O)Nc1cc(OC[C@H](O)CO)ccn1)[C@H]1CCCN2C1 (single isomer, unassigned) [Example 52] |  | A (EC1.5<1 μM) | 
6 | Cc1cc(-c2nc3c(cc2C)N2CCC[C@@H](C2)N3C(=O)Nc2cccnc2)ccn1 [Example 68, (9S)-3-methyl-2-(2-methylpyridin-4-yl)-N-(pyridin-3-yl)-8,9-dihydro-6H-5,9-methanopyrido[2,3-b][1,4]diazocine-10(7H)-carboxamide] | ≥ 150% | A (EC1.5<1 μM) | 
7 | Cc1ccc2c(NC(=O)N3c4nc(C(=O)NC5CC5(F)F)ccc4N4CCC[C@H]3C4)n[nH]c2n1 (single isomer, unassigned) [Example 48] | ≥ 150% | A (EC1.5<1 μM) | 
8 | Cc1ccc2c(NC(=O)N3c4nc(C(=O)N[C@H](C)C(F)(F)F)cc(C)c4N4CCC[C@H]3C4)n[nH]c2n1 [Example 47, (9S)-4-methyl-N10-(6-methyl-1H-pyrazolo[3,4-b]pyridin-3-yl)-N2-((R)-1,1,1-trifluoropropan-2-yl)-8,9-dihydro-6H-5,9-methanopyrido[2,3-b][1,4]diazocine-2,10(7H)-dicarboxamide] | ≥ 150% | A (EC1.5<1 μM) | 
9 | Cc1ccc2c(NC(=O)N3c4nc(C(=O)N[C@H](C)C(F)(F)F)ccc4N4CCC[C@H]3C4)n[nH]c2n1 [Example 43, (9S)-N10-(6-methyl-1H-pyrazolo[3,4-b]pyridin-3-yl)-N2-((R)-1,1,1-trifluoropropan-2-yl)-8,9-dihydro-6H-5,9-methanopyrido[2,3-b][1,4]diazocine-2,10(7H)-dicarboxamide] | ≥ 150% | A (EC1.5<1 μM) | 
10 | O=C(Nc1ccc(F)cn1)N1c2nc(N3CCCC(C(F)(F)F)C3)ccc2N2CCC[C@H]1C2 (single isomer, unassigned) [Example 29] |  | B (EC1.5 1-25 μM) | A (Fold activation≥150%)
11 | Cc1cc(-c2nc3c(cc2Cl)N2CCC[C@@H](C2)N3C(=O)Nc2cccnc2)ccn1 [Example 66, (9S)-3-chloro-2-(2-methylpyridin-4-yl)-N-(pyridin-3-yl)-8,9-dihydro-6H-5,9-methanopyrido[2,3-b][1,4]diazocine-10(7H)-carboxamide] | ≥ 150% |  | 
12 | O=C(Nc1ccc(OC[C@H](O)CO)cn1)N1c2nc(-c3cccc(C(F)(F)F)c3)c(Cl)cc2N2CCC[C@H]1C2 [Example 87, (9S)-3-chloro-N-(5-((R)-2,3-dihydroxypropoxy)pyridin-2-yl)-2-(3-(trifluoromethyl)phenyl)-8,9-dihydro-6H-5,9-methanopyrido[2,3-b][1,4]diazocine-10(7H)-carboxamide] | ≥ 150% | A (EC1.5<1 μM) | 
13 | Cc1cc(-c2ccc3c(n2)N(C(=O)Nc2cncnc2)[C@H]2CCCN3C2)ccn1 [Example 16, (9S)-2-(2-methylpyridin-4-yl)-N-(pyrimidin-5-yl)-8,9-dihydro-6H-5,9-methanopyrido[2,3-b][1,4]diazocine-10(7H)-carboxamide] | ≥ 150% | B (EC1.5 1-25 μM) | 
14 | O=C(Nc1cnccn1)N1c2nc(N3CCC[C@H](C(F)(F)F)C3)ccc2N2CCC[C@H]1C2 (single isomer, unassigned) [Example 27] | ≥ 150% | A (EC1.5<1 μM) | 
15 | Cc1cc(-c2ccc3c(n2)N(C(=O)Nc2cccnn2)[C@H]2CCCN3C2)ccn1 [Example 14, (9S)-2-(2-methylpyridin-4-yl)-N-(pyridazin-3-yl)-8,9-dihydro-6H-5,9-methanopyrido[2,3-b][1,4]diazocine-10(7H)-carboxamide] | ≥ 150% | A (EC1.5<1 μM) | 
16 | O=C(Nc1cnccn1)N1c2nc(N3CCCC(C(F)(F)F)C3)ccc2N2CCC[C@H]1C2 (single isomer, unassigned) [Example 30] | ≥ 150% | A (EC1.5<1 μM) | 
17 | Cc1cc(C(=O)N[C@H](C)C(F)(F)F)nc2c1N1CCC[C@@H](C1)N2C(=O)Nc1ccc(OC[C@@H](O)CO)cn1 [Example 56, (9S)-N10-(5-((S)-2,3-dihydroxypropoxy)pyridin-2-yl)-4-methyl-N2-((R)-1,1,1-trifluoropropan-2-yl)-8,9-dihydro-6H-5,9-methanopyrido[2,3-b][1,4]diazocine-2,10(7H)-dicarboxamide] | ≥ 150% | A (EC1.5<1 μM) | 
18 | Cc1ncc(-c2ccnc(NC(=O)N3c4nc(C(=O)N[C@H](C)C(F)(F)F)c(Cl)cc4N4CCC[C@H]3C4)c2)o1 [Example 51, (9S)-3-chloro-N10-(4-(2-methyloxazol-5-yl)pyridin-2-yl)-N2-((R)-1,1,1-trifluoropropan-2-yl)-8,9-dihydro-6H-5,9-methanopyrido[2,3-b][1,4]diazocine-2,10(7H)-dicarboxamide] | ≥ 150% | A (EC1.5<1 μM) | 
19 | O=C(Nc1cnc(OC[C@H](O)CO)nc1)N1c2nc(-c3cccc(C(F)(F)F)c3)c(Cl)cc2N2CCC[C@H]1C2 [Example 69, (9S)-3-chloro-N-(2-((R)-2,3-dihydroxypropoxy)pyrimidin-5-yl)-2-(3-(trifluoromethyl)phenyl)-8,9-dihydro-6H-5,9-methanopyrido[2,3-b][1,4]diazocine-10(7H)-carboxamide] | ≥ 150% | A (EC1.5<1 μM) | 
20 | Cc1ncc(-c2ccnc(NC(=O)N3c4nc(C(=O)N[C@H](C)C(F)(F)F)ccc4N4CCC[C@H]3C4)c2)s1 [Example 44, (9S)-N10-(4-(2-methylthiazol-5-yl)pyridin-2-yl)-N2-((R)-1,1,1-trifluoropropan-2-yl)-8,9-dihydro-6H-5,9-methanopyrido[2,3-b][1,4]diazocine-2,10(7H)-dicarboxamide] | ≥ 150% | A (EC1.5<1 μM) | 
21 | O=C(Nc1cccnc1)N1c2nc(N3CCCC(C(F)(F)F)C3)ccc2N2CCC[C@H]1C2 (single isomer, unassigned) [Example 25] | ≥ 150% | A (EC1.5<1 μM) | 
